The text below walks through data of patent publication US20110166059A1, “MEANS AND METHODS FOR EVALUATING A THERAPY WITH A P38 MAP KINASE INHIBITOR” (priority 2008, published 2011).

Each structure is given as a SMILES string.

The subject of one test is TNF, IL-6 or IL-10. As to conditions: human volunteers, control group increased after about 2-4 hours; oral inhibitor; cited from earlier work.
For test [1], the system named is LPS-stimulated human monocytes. The test can be described thus: Microarray gene expression profile of long-term LPS-stimulated monocytes in the presence of kinase inhibitors. Format: cell-based. As to conditions: for late-stage LPS-induced gene expression change (principal component analysis, FIG. 4): long-term (16 hours) LPS-treated monocytes, 100 ng/ml LPS, inhibitor 10 μM. As for the experimental part: (§1) Monocytes were isolated from pooled human buffy coats by Ficoll-Paque and subsequent Percoll (Pharmacia, Freiburg, Germany) density-gradient centrifugation to greater than 90% purity. Monocytes were cultured (1×10^6 cells/nil) in hydrophobic Teflon bags (Hereus, Hanau, Germany) in McCoy's 5a medium (Biochrom, Berlin, Germany) supplemented with 15% FCS, 2 mM L-glutamine, 200 IU penicillin, 100 μg/ml streptomycin and 1× NEAA (all from Biochrom, Berlin, Germany) and allowed to rest for 18 h prior to stimulation. Monocytes were exposed for 4 and 16 hours to 100 ng/ml LPS in the absence or presence of 10 μM PD98059, 10 μM GF109203X or 10 μm SB202190, respectively, or were left untreated
Total cellular RNA was isolated from 3 independent experiments with untreated and LPS-stimulated human monocytes in the absence or presence of pharmacological kinase inhibitors (RNeasy kit; Qiagen, Hilden, Germany). RNA preparation, samples preparation and hybridization to Affymetrix Human Genome 133 A Gene Chip arrays were performed according to the manufacturer's instructions (Affymetrix, Santa Clara, Calif.).
Ten micrograms of fragmented cRNA was, together with control cRNAs and grid alignment oligonucleotides, hybridized for 16 hours under constant rotation at 45° C. to Affymetrix Human Genome 133 A Gene Chip arrays (Affymetrix). Arrays were washed and stained using the Gene Chip Fluidics Station 400 (Affymetrix). Fluorescent signals were detected by the HP G2500A Gene Array Scanner (Affymetrix).
Data were processed by MicroArray Suite (MAS) Software 5.0 (Affymetrix). Signals were scaled to a target intensity of 100 and log transformed. The algorithm applied in the MAS 5.0 software assigned individual average background values to each cell intensity and subtracted it from single raw cell intensities Single raw values were calculated for each probe set (i.e., transcript from the median of discrimination values and their significance was assessed by using a one-sided Wilcoxon rank test).
While the MAS 5.0 software only allows comparison of 2 individuals data sets, we further studied the Affymetrix intensity files with the Expressionist Suite software package (GeneData, Basel, Switzerland) for a more sophisticated statistical analysis. […] The software package includes the Expressionist Refiner v3.0.4 which permits a global chip quality control with detection and masking of outliers and array defects, fluorescence gradient correction, and variance regularization. For final identification of significant gene expression difference we used Expressionist Analyst v4.0.5. First, data were normalized to a logarithmic mean of 180 in all experiments. […] Finally, n-fold changes were determined and screened for their significance by applying a t test. […]

Test [2] concerns promoter regions of LPS-regulated proinflammatory genes (VCAM, IL8, DUSP1, TNF, MYC) in monocytes. In words: Chromatin immunoprecipitation (ChIP) of histone acetylation and methylation at promoters of pro-inflammatory genes in LPS-treated monocytes. Format: cell-based, human. As to conditions: long-term (16 h) LPS treatment, ongoing inhibition of p38 MAP kinase; FIGS. 8 and 10. As for the experimental part:
as §1
After stimulation, monocytes were formalin-fixed, washed, lysed, and sonicated. DNA-protein complexes were immunoprecipitated with polyclonal histone-antibodies against H3K4 (abcam, Cambridge, UK), H3K79 and AcH4 (both upstate, Lake Placid, N.Y.). […] PCR products were processed by using the QuantiTect SYBR Green PCR kit to perform quantitative RT-PCRs employing the ABI PRISM 7900 (Applied Biosystems).

Turning to `Cc1ccc(-n2nc(C(C)(C)C)cc2NC(=O)Nc2ccc(OCCN3CCOCC3)c3ccccc23)cc1` [BIRB 796 BS, 1-(5-tert-butyl-2-p-tolyl-2H-pyrazol-3-yl)-3-[4-(2-morpholin-4-yl-ethoxy)-naphthalen-1-yl]-urea], the “increase in cytokines such as TNF, IL-6 or IL-10 after LPS administration” value in the test on TNF, IL-6 or IL-10 is listed as “did not show a significant increase in these cytokines”.

As to `CN(C)CCCn1cc(C2=C(c3c[nH]c4ccccc34)C(=O)NC2=O)c2ccccc21` [GF109203X], in test [1], the “late-stage LPS-induced gene expression change (principal component analysis, FIG. 4)” value is recorded as “did not significantly change gene expression”.

Consider `COc1cccc(-c2cc(=O)c3ccccc3o2)c1N` [PD98059], for which the “late-stage LPS-induced gene expression change (principal component analysis, FIG. 4)” value in test [1] was “did not significantly change gene expression”.

Regarding `Oc1ccc(-c2nc(-c3ccncc3)c(-c3ccc(F)cc3)[nH]2)cc1` [SB202190, 4-(4-fluorophenyl)-2-2(4-hydroxyphenyl)-5-(4-pyridyl)-imidazole], the “acetylation of H4 (AcH4) at pro-inflammatory genes” value in test [2] is on record as “sustained high acetylation of H4 (AcH4)”. In addition, the “down-regulation of inflammatory response genes in the late stage of LPS-signaling” value in test [1] (human monocytes, 16 hours 100 ng/ml LPS, 10 μm SB202190) was “reversed the down-regulation of inflammatory response genes”. Further, the “late-stage LPS-induced gene expression change (principal component analysis, FIG. 4)” value in test [1] was “changed significantly”.
